Here are results for one molecule from patent US11761045B2, “Splice variants associated with neomorphic SF3B1 mutants” (Eisai R&D Management Co., Ltd., priority 2015, dated 2023).

The subject of data set [1] is Nalm-6 SF3B1^K700E cells. The data set can be described thus: Normal and aberrant splicing in Nalm-6 isogenic cells by qPCR. The data set is classed as cell-based, human. The settings on record: increasing concentrations, six hours. On the procedure: (§1) E7107 was also tested in vitro in Nalm-6 isogenic cell lines for the ability to modulate normal and aberrant splicing induced by SF3B1^WT and SF3B1^K700E protein. Nalm-6 isogenic cells were treated with increasing concentrations of E7107 for six hours and RNA was analyzed by qPCR.
(§2) In addition, the ability of E7107 to modulate splicing was tested in mice bearing human tumor xenografts. Nalm-6 isogenic xenograft mice were generated by subcutaneously implanting 10×10^6 Nalm-6 isogenic cells into the flank of CB17-SCID mice, and tumors from these mice were collected at different timepoints after a single intravenous (IV) dose of E7107 (5 mg/kg) and analyzed to determine compound concentrations and splicing regulation. RNA was isolated from the tumors using RiboPure™ RNA purification kit (Ambion®) and used for NanoString® assay or qPCR. The RNA was retrotranscribed according to the instructions of the SuperScript® VILO™ cDNA synthesis kit (Invitrogen™) and 0.04 μl of cDNA was used for qPCR. qPCR for pre-mRNA EIF4A1 and mature mRNA […] and pharmacokinetic evaluation were performed as described in Eskens, F. A. et al. “Phase I pharmacokinetic and pharmacodynamic study of the first-in-class spliceosome inhibitor E7107 in patients with advanced solid tumors.” Clin Cancer Res 19, 6296-6304, doi:10.1158/1078-0432.CCR-13-0485 (2013). The primers and probes used for ZDHHC16 were the following: FW 5′-[…] (SEQ ID NO: 1194), RW 5′ […] (SEQ ID NO: 1195) and probe 5′ FAM […] (SEQ ID NO: 1196). The primers and probes used for COASY were the following: FW 5′-CGGTGGTGCAAGTGGAA (SEQ ID NO: 1197), RW 5′-[…] (SEQ ID NO: 1198) and probe 5′-FAM-[…] (SEQ ID NO: 1199).
Background: In qPCR the cycle at which signal appears reflects the starting amount.

The subject of data set [2] is Nalm-6 SF3B1^K700K cells. The description is as above. The settings on record: increasing concentrations, six hours. The data set is classed as cell-based, human. Here is the method: as §1, §2
Data set [3] relates to Nalm-6 SF3B1^K700E cells. The data set can be described thus: Splice variant levels in Nalm-6 isogenic cells by NanoString assay. Format: cell-based, human. The settings on record: 15 nM. Here is the method:
(§3) A NanoString® assay was developed to quantify aberrant and canonical splice variants and was validated using the same cell panel. For the NanoString® assay, 750 ng of purified total RNA was used as template for the nCounter® (NanoString Technologies®) expression assay using a custom panel of NanoString® probes. The sample preparation was set up as recommended (NanoString® Technologies protocol no. C-0003-02) for an overnight hybridization at 65° C. The following day, samples were processed through the automated nCounter® Analysis System Prep Station using the high sensitivity protocol (NanoString® Technologies protocol no. MAN-00029-05) followed by processing through the nCounter® Analysis System Digital Analyzer (protocol no. MAN-00021-01) using 1150 FOVs for detection. Data was downloaded and analyzed for quality control metrics and normalization using the nSolver™ Analysis Software (NanoString Technologies®). The data was first normalized for lane-to-lane variation using the positive assay controls provided by the manufacturer (NanoString® positive controls A-F [containing in vitro transcribed RNA transcripts at concentrations of 128 fM, 32 fM, 8 fM, 2 fM, 0.5 fM, and 0.125 fM, each pre-mixed with NanoString® Reporter CodeSet probes])). Any samples with normalization factors <0.3 and >3 were not considered for further analysis. This was followed by content normalization using the geo-mean of GAPDH, EEF1A1 and RPLP0. All samples were within the recommended 0.1-10 normalization factor range. Each normalized value was then checked to ensure that it was at least two standard deviations higher than the average of background signal recorded for that lane. Any value below that was considered below detection limit. These normalized values were taken for further bioinformatics and statistical analysis.
(§4) To investigate the broader activity of E7107 on normal and aberrant splicing, RNA from Nalm-6 isogenic cells treated for two and six hours at 15 nM was analyzed by NanoString®. […] Normal and aberrant splicing in the isogenic cell lines was also analyzed by RNA-Seq following treatment with one of additional compounds having formulas 1 or 2. […] For the RNA-Seq analysis, cells were washed with PBS after treatment with E7107 or other test compound, and RNA was isolated using PureLink (Life Technology) as reported in the manufacturer's manual. cDNA library preparation, sequencing and raw read filtering was performed as described in Ren, S. et al. “RNA-Seq analysis of prostate cancer in the Chinese population identifies recurrent gene fusions, cancer-associated long noncoding RNAs and aberrant alternative splicings.” Cell Res 22, 806-821, doi:10.1038/cr.2012.30 (2012).

In data set [4] the test system is Nalm-6 SF3B1^K700K cells. Described as above. Format: cell-based, human. The settings on record: 15 nM. On the procedure: as §3, §4
Data set [5] deals with Nalm-6 SF3B1^K700E xenograft. The data set can be described thus: Antitumor activity in subcutaneous Nalm-6 SF3B1^K700E xenograft model. Format: in vivo, CB17-SCID mice. Here is the method:
SF3B1 modulator E7107 was tested for antitumor activity in vivo by determining the effect of E7107 in a subcutaneous model of Nalm-6 SF3B1^K700E. […] After this dosing, the animals were monitored until they reached either of the following endpoints: 1) excessive tumor volume measured three times a week (tumor volume calculated by using the ellipsoid formula: […]), or 2) development of any health problem such as paralysis or excessive body weight loss. Partial regression (PR) and complete regression (CR) are defined as 3 consecutive tumor measurements <50% and <30% of starting volume respectively.

In data set [6] the test system is SF3B1^WT CLL patient samples. The data set can be described thus: Splicing inhibition in CLL patient samples in vitro by RNA-Seq. The data set is classed as cell-based, human. The conditions noted are these: 10 nM, 6 hours. On the procedure:
(§5) The ability of E7107 to inhibit splicing in CLL patient samples in vitro was determined by isolating RNA from samples of E7107-treated patient cells treated for 6 hours with E7107 at 10 nM and performing RNA-Seq analysis. To do so, cells were washed with PBS after treatment with E7107, and RNA was isolated using PureLink (Life Technology) as reported in the manufacturer's manual. cDNA library preparation, sequencing and raw read filtering was performed as described in Ren, S. et al. “RNA-Seq analysis of prostate cancer in the Chinese population identifies recurrent gene fusions, cancer-associated long noncoding RNAs and aberrant alternative splicings.” Cell Res 22, 806-821, doi:10.1038/cr.2012.30 (2012).

Data set [7] deals with neomorphic SF3B1^MUT CLL patient samples. The description is as above. Format: cell-based, human. The conditions noted are these: 10 nM, 6 hours. Here is the method: as §5

Each structure is given as a SMILES string.

In the case of `CC[C@H](O)[C@@H](C)[C@H]1O[C@@H]1C[C@@](C)(O)/C=C/C=C(\C)[C@H]1OC(=O)C[C@H](O)CC[C@@](C)(O)[C@@H](OC(=O)N2CCN(C3CCCCCC3)CC2)/C=C/[C@@H]1C` [Compound E7107], the “EIF4A1 pre-mRNA level (canonical splicing)” value with Nalm-6 SF3B1^K700E cells [1] and in the data set with Nalm-6 SF3B1^K700K cells [2] was “accumulation of pre-mRNA for EIF4A1” throughout. Besides, the “SLC25A19 mature mRNA level (canonical splicing)” value in the data set with Nalm-6 SF3B1^K700E cells [1] and in the data set on Nalm-6 SF3B1^K700K cells [2] was “downregulation of the mature mRNA SLC25A19” in each case. The “mature mRNA of abnormally spliced isoform of COASY” value in the data set with Nalm-6 SF3B1^K700E cells [1] is given as “downregulation of mature mRNA”. Also, in the data set with Nalm-6 SF3B1^K700E cells [1], the “mature mRNA of abnormally spliced isoform of ZDHHC16” value was “downregulation of mature mRNA”. For the same molecule, the “inhibition of splicing (all isoforms quantified)” value with Nalm-6 SF3B1^K700E cells [3] (six hours) and in the data set on Nalm-6 SF3B1^K700K cells [4] (six hours) was “clear inhibition” each time. For the same molecule, the “inhibition of splicing (gene, WT-associated and MUT-associated isoform expression)” value in the data set on Nalm-6 SF3B1^K700E cells [3] (two hours) and with Nalm-6 SF3B1^K700K cells [4] (two hours) was “partial inhibition of splicing” throughout. Also, the “complete regression (CR)” value in data set [5] (1.25 mg/kg IV QDx5, n=10) is given as “all animals (n=10) reached complete regression (CR)”; in data set [5] (5 mg/kg IV QDx5) it was “all Nalm-6 SF3B1^K700E xenograft animals reached CR as early as 9 days post treatment”. In addition, the “complete regressions (CRs), animals” value in data set [5] (2.5 mg/kg IV QDx5, by day 9) is listed as 10/10. For the same molecule, in data set [5] (5 mg/kg IV QDx5), the mean survival time result is “over 250 days”. Moreover, the “tolerability of dose levels” value in data set [5] (1.25, 2.5 and 5 mg/kg IV QDx5) is listed as “well tolerated”. Besides, the “expression of canonical splice isoforms” value in data set [6] and in data set [7] was “inhibited the expression of canonical splice isoforms” throughout. The aberrant splicing entry in data set [7] (all samples carrying neomorphic SF3B1 mutations) is reported as “able to modulate aberrant splicing”.
